Measured values as given in patent publication US6096874A (Board of Regents, the University of Texas System, priority 1995, dated 2000).
Read-outs that look alike come from different tables or passages of the source.

Key:
[1] = Biodistribution in estradiol-primed or unprimed female Sprague-Dawley rats; format: in vivo, rat
Method: Four groups of rats (150-200 gm, N=4/group) were anesthetized with ketamine (10-15 mg/rat). […]. Tissue uptake of ^18 F-tracer was determined at 2 and 4 hours (h). To ascertain whether the ^18 F-tracer uptake was mediated by a receptor-process, one group of rats was given ^18 F-tracer without priming with estradiol; and another group of rats was given unlabeled estradiol (30 μg/rat) together with ^18 F-tracer. […].
The inventors first determined the in vivo tissue distribution of [^18 F-FTX] in rats. Specifically, four groups of female Sprague-Dawley rats (N=4/group, 200-250 gm; obtained from Harlan Inc., Indianapolis, Ind.) were anesthetized with ketamine (10-15 mg/rat). […]. The tissue distribution was studied at 2 hour and 4 hour intervals.

in vivo = assay: in vivo; parameters: species or system rat; conditions: for Tumor uptake: 120 min; for tissue uptake at 0.5 h / tissue uptake at 2 h / tissue uptake at 4 h: iv; for tissue uptake at 0.5 h: 30 min
Method: In animal tissue distribution studies, each rate was given 8.9 μCi (0.15 ml) tracer intravenously. The tumor-bearing rats were killed at 1, 3, 6 and 24 h. […] The amount of DES given should occupy tumor estrogen receptor sites. The methods for inducing tumors in rats was as described by those of skill in the art (radiology). […]
Female Fisher 344 rats (250-275 g) (Harlan, Inc., Indianapolis, Ind.) were inoculated with mammary tumor cells using the 13762 tumor cell line (s.c. 10^5 cells/rat). After 14 days, a tumor size of 1-2 cm was observed. For ^131 I-ITX studies, five groups of rats (N=3/group) were anesthetized with ketamine (10-15 mg/rat). The trans ^131 I-ITX was given to four of the five groups (8.9 μCi/rat, i.v.) and biodistribution was studied at 1, 3, 6 and 24 h intervals. In blocking studies, the fifth group of rats was given diethylstilbestrol (DES) (1.2 mg/rat) for 1 h, followed by 8.9 μCi of ^131 I-ITX; biodistribution was studied 6 h later. The tissues were collected at different time intervals. The tissues were weighted and counted for radioactivity. The percent of injected dose per gram of tissue weight was calculated. […]

breast tumors = assay: PET imaging of ER+ breast tumors in patients; format: in vivo, human
Method: This example describes a ligand for imaging ER (+) breast tumors by positron emission tomography (PET) or single photon emission computed tomography (SPECT).
PET imaging was performed on three breast cancer patients (age 54±3) (ER+) with a positron camera (Positron Corporation, Houston, Tex.). Each patient was positioned supine in the scanner so that the detector rings would span the entire breast cancer region. A 20-min attenuation scan was performed with a 4 mCi [^68 Ge]-ring source prior to [^18 F]FTX. After each patient received 4 mCi of {^18 F]FTX, six consecutive 20 min scans were acquired. Serial transaxial images were performed. The tomograph has a field-of-view of 42 cm on transverse and 12 cm on coronal plans. The axial resolution on the reconstructed plan is 1.2 cm. […] The SUV value is generated using a dedicated computer.

[2] = 2 h, blocked with estradiol 30 μg, listed as 18 Ftracer, 120 min
[3] = 2 h, blocked with estradiol 30 μg, listed as N,N-DIETHYL-[^18 F]FLUOROMETHYLTAMOXIFEN, 120 min
[4] = 2 h, estradiol-primed, listed as 18 Ftracer, 120 min
[5] = 2 h, not primed, listed as 18 Ftracer, 120 min
[6] = 2 h, not primed, listed as N,N-DIETHYL-[^18 F]FLUOROMETHYLTAMOXIFEN, 120 min
[7] = 4 h, estradiol-primed, listed as 18 Ftracer, 240 min
[8] = 2 h, pretreated with DES (blocking)
[9] = rat, blood, read-out: Blood uptake
[10] = rat, bone, read-out: Bone uptake
[11] = rat, kidney, read-out: Kidney uptake
[12] = rat, liver, read-out: Liver uptake
[13] = rat, lung, read-out: Lung uptake
[14] = rat, muscle, read-out: Muscle uptake
[15] = rat, tumor, read-out: Tumor uptake
[16] = rat, uterus, read-out: Uterus uptake

- Blood uptake [1, 2]: 0.048 % OF INJECTED DOSE/GRAM OF TIS
- Bone uptake [1, 2]: 0.576 % OF INJECTED DOSE/GRAM OF TIS
- Intestine uptake [1, 2]: 0.742 % OF INJECTED DOSE/GRAM OF TIS
- Liver uptake [1, 2]: 4.451 % OF INJECTED DOSE/GRAM OF TIS
- Muscle uptake [1, 2]: 0.145 % OF INJECTED DOSE/GRAM OF TIS
- Uterus uptake [1, 2]: 0.297 % OF INJECTED DOSE/GRAM OF TIS
- Blood uptake [1, 4]: 0.033 % OF INJECTED DOSE/GRAM OF TIS
- Bone uptake [1, 4]: 0.653 % OF INJECTED DOSE/GRAM OF TIS
- Intestine uptake [1, 4]: 0.917 % OF INJECTED DOSE/GRAM OF TIS
- Kidney uptake [1, 4]: 0.742 % OF INJECTED DOSE/GRAM OF TIS
- Liver uptake [1, 4]: 4.540 % OF INJECTED DOSE/GRAM OF TIS
- Muscle uptake [1, 4]: 0.151 % OF INJECTED DOSE/GRAM OF TIS
- Uterus uptake [1, 4]: 0.426 % OF INJECTED DOSE/GRAM OF TIS
- Bone uptake ([1]; 2 h, estradiol-primed, listed as [^18 F]fluoro analogue of tamoxifen, 120 min): 0.65 % OF INJECTED DOSE/GRAM OF TIS
- Blood uptake [1, 5]: 0.033 % OF INJECTED DOSE/GRAM OF TIS
- Bone uptake [1, 5]: 0.644 % OF INJECTED DOSE/GRAM OF TIS
- Intestine uptake [1, 5]: 0.504 % OF INJECTED DOSE/GRAM OF TIS
- Kidney uptake [1, 5]: 0.530 % OF INJECTED DOSE/GRAM OF TIS
- Liver uptake [1, 5]: 3.849 % OF INJECTED DOSE/GRAM OF TIS
- Muscle uptake [1, 5]: 0.109 % OF INJECTED DOSE/GRAM OF TIS
- Uterus uptake [1, 5]: 0.248 % OF INJECTED DOSE/GRAM OF TIS
- Blood uptake [1, 7]: 0.045 % OF INJECTED DOSE/GRAM OF TIS
- Bone uptake [1, 7]: 0.802 % OF INJECTED DOSE/GRAM OF TIS
- Intestine uptake [1, 7]: 1.101 % OF INJECTED DOSE/GRAM OF TIS
- Kidney uptake [1, 7]: 0.796 % OF INJECTED DOSE/GRAM OF TIS
- Liver uptake [1, 7]: 4.205 % OF INJECTED DOSE/GRAM OF TIS
- Muscle uptake [1, 7]: 0.183 % OF INJECTED DOSE/GRAM OF TIS
- Uterus uptake [1, 7]: 0.400 % OF INJECTED DOSE/GRAM OF TIS
- Bone uptake ([1]; 4 h, estradiol-primed, listed as [^18 F]fluoro analogue of tamoxifen, 240 min): 0.80 % OF INJECTED DOSE/GRAM OF TIS
- Blood uptake (in vivo; [8]): 0.102 % injected dose/gram tissue
- Bone uptake (in vivo; [8]): 0.278 % injected dose/gram tissue
- Kidney uptake (in vivo; [8]): 1.241 % injected dose/gram tissue
- Liver uptake (in vivo; [8]): 7.242 % injected dose/gram tissue
- Lung uptake (in vivo; [8]): 2.084 % injected dose/gram tissue
- Muscle uptake (in vivo; [8]): 0.131 % injected dose/gram tissue
- Uterus uptake (in vivo; [8]): 0.435 % injected dose/gram tissue
- Tumor uptake (in vivo; [8]): 0.24±0.017 % injected dose/gram tissue
- Tumor uptake (in vivo; 2 h, pretreated with DES (blocking), listed as [^18 F]FLUOROMETHYL-N,N-DIETHYL-TAMOXIFEN): 0.244 % injected dose/gram tissue
- Tumor uptake (in vivo; 2 h): 0.405 % injected dose/gram tissue
- tissue uptake at 0.5 h (in vivo; [9]): 0.169 %ID/g
- tissue uptake at 2 h (in vivo; rat, blood, 2 h, read-out: Blood uptake): 0.114 %ID/g
- tissue uptake at 4 h (in vivo; [9]): 0.069 %ID/g
- tissue uptake at 0.5 h (in vivo; [10]): 0.264 %ID/g
- tissue uptake at 2 h (in vivo; rat, bone, 2 h, read-out: Bone uptake): 0.482 %ID/g
- tissue uptake at 4 h (in vivo; [10]): 0.258 %ID/g
- tissue uptake at 0.5 h (in vivo; [11]): 1.71 %ID/g
- tissue uptake at 2 h (in vivo; rat, kidney, 2 h, read-out: Kidney uptake): 2.08 %ID/g
- tissue uptake at 4 h (in vivo; [11]): 0.652 %ID/g
- tissue uptake at 0.5 h (in vivo; [12]): 6.36 %ID/g
- tissue uptake at 2 h (in vivo; rat, liver, 2 h, read-out: Liver uptake): 6.93 %ID/g
- tissue uptake at 4 h (in vivo; [12]): 6.5 %ID/g
- tissue uptake at 0.5 h (in vivo; [13]): 3.82 %ID/g
- tissue uptake at 2 h (in vivo; rat, lung, 2 h, read-out: Lung uptake): 3.5 %ID/g
- tissue uptake at 4 h (in vivo; [13]): 1.31 %ID/g
- tissue uptake at 0.5 h (in vivo; [14]): 0.183 %ID/g
- tissue uptake at 2 h (in vivo; rat, muscle, 2 h, read-out: Muscle uptake): 0.234 %ID/g
- tissue uptake at 4 h (in vivo; [14]): 0.093 %ID/g
- tissue uptake at 0.5 h (in vivo; [15]): 0.256 %ID/g
- tissue uptake at 2 h (in vivo; rat, tumor, 2 h, read-out: Tumor uptake): 0.41 ± 0.07 %ID/g
- tissue uptake at 4 h (in vivo; [15]): 0.284 %ID/g
- tissue uptake at 0.5 h (in vivo; [16]): 0.536 %ID/g
- tissue uptake at 4 h (in vivo; [16]): 0.364 %ID/g
- SUV (breast tumors; patient 1, left axilla): 0.7
- SUV (breast tumors; patient 2, mediastinum): 1.8
- SUV (breast tumors; patient 3, left axilla): 2.6
- SUV (breast tumors; patient 3, right axilla): 2.2
- SUV (breast tumors; patient 3, right breast): 1.6
- SUV (breast tumors; patient 3, spine): 3.0
- SUV of breast tumors (breast tumors; three patients, 4 mCi): 2-5
- SUV in tumor of patients responding well to tamoxifen therapy (breast tumors; three patients, listed as 18 F-tamoxifen): > 2.4
- SUV in tumor of patients responding well to tamoxifen therapy (breast tumors; three patients, listed as [^18 F]fluorotamoxifen): more than 2.4
SMILES: CCN(CC)CCOc1ccc(/C(=C(/CCC[18F])c2ccccc2)c2ccccc2)cc1 [[^18 F]FTX, (trans)[^18 F]Fluoromethyl-N,N-diethyltamoxifen]
- Blood uptake [1, 3]: 0.048 % OF INJECTED DOSE/GRAM OF TISSUE WEIGHT
- Bone uptake [1, 3]: 0.576 % OF INJECTED DOSE/GRAM OF TISSUE WEIGHT
- Intestine uptake [1, 3]: 0.742 % OF INJECTED DOSE/GRAM OF TISSUE WEIGHT
- Liver uptake [1, 3]: 4.451 % OF INJECTED DOSE/GRAM OF TISSUE WEIGHT
- Muscle uptake [1, 3]: 0.145 % OF INJECTED DOSE/GRAM OF TISSUE WEIGHT
- Uterus uptake [1, 3]: 0.297 % OF INJECTED DOSE/GRAM OF TISSUE WEIGHT
- Blood uptake [1, 6]: 0.033 % OF INJECTED DOSE/GRAM OF TISSUE WEIGHT
- Bone uptake [1, 6]: 0.644 % OF INJECTED DOSE/GRAM OF TISSUE WEIGHT
- Intestine uptake [1, 6]: 0.504 % OF INJECTED DOSE/GRAM OF TISSUE WEIGHT
- Kidney uptake [1, 6]: 0.530 % OF INJECTED DOSE/GRAM OF TISSUE WEIGHT
- Liver uptake [1, 6]: 3.849 % OF INJECTED DOSE/GRAM OF TISSUE WEIGHT
- Muscle uptake [1, 6]: 0.109 % OF INJECTED DOSE/GRAM OF TISSUE WEIGHT
- Uterus uptake [1, 6]: 0.248 % OF INJECTED DOSE/GRAM OF TISSUE WEIGHT
- Tissue uptake findings (in words) (in vivo; rat, in vivo): increased uptake in the tumor and uterus can be blocked by pretreatment with diethylstilbestrol (DES)
